From US7307095B2, “Inhibitors of cathepsin S” (IRM LLC, priority 2003, dated 2007)

Experiments:
Format in all cases: biochemical
Cathepsin S = Cathepsin S (Homo sapiens, UniProt P25774); assay: Cathepsin S inhibition, fluorogenic peptide substrate kinetic assay; details: Cathepsin S inhibition constant; read-out: Ki Cat. S
Protocol: (§1) The optimal substrate for cathepsin S, acetyl-histidine-proline-valine-lysine-amino carbamoyl coumarin, was identified from screening a combinatorial library of fluorogenic peptide substrates (Harris, J. L., B. J. Backes, et al. Proc Natl Acad Sci USA 2000, 97(14), 7754-9). Kinetic measurements are performed in a total reaction volume of 30 μl in 384-well microtiter plates. […] Control reactions in the absence of inhibitor are performed in replicates of 24. The reactions are initiated by adding the substrate, acetyl-histidine-proline-valine-lysine-amino carbamoyl coumarin, to a final concentration of 50 μM. The rate of substrate hydrolysis is measured by monitoring the increase in fluorescence at an excitation wavelength of 380 nm and an emission wavelength of 450 nm that results from cleavage of the aniline bond in the substrate by the enzyme. The apparent inhibition constants for the compounds are determined from the enzyme progress curves (Kuzmic, P., K. C. Elrod, et al. Anal Biochem 2000, 286(1), 45-50) and are then used to calculate the inhibition constants for competitive inhibitors.

Cathepsin L = Cathepsin L (Homo sapiens, UniProt P07711); assay: Cathepsin L inhibition, fluorogenic peptide substrate kinetic assay (selectivity ratio vs cathepsin S); details: ratio of cathepsin L inhibition constant to cathepsin S inhibition constant
Sequence of Cathepsin L (P07711 114-333, species assumed): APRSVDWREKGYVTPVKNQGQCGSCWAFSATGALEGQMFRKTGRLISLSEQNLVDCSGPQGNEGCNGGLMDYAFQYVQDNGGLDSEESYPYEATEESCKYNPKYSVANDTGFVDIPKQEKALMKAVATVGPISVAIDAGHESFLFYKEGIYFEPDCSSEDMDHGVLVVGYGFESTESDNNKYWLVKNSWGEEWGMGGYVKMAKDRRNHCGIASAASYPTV
Protocol: as §1, with “cathepsin L, acetyl-histidine-lysine-phenylalanine-lysine-amino” for “cathepsin S, acetyl-histidine-proline-valine-lysine-amino”, “substrate, acetyl-histidine-lysine-phenylalanine-lysine-amino” for “substrate, acetyl-histidine-proline-valine-lysine-amino”, “of 20” for “of 50”, “curves ([…].” for “curves (Kuzmic, P., K. C.”, “inhibitors. Selectivity for cathepsin S in the presence of cathepsin isozymes was determined by the ratio of the cathepsin isozyme inhibition constant of a compound of the present invention to the cathepsin S inhibition constant of the same compound.” for “inhibitors.”

Cathepsin B = Cathepsin B (Homo sapiens, UniProt P07858); assay: Cathepsin B inhibition, fluorogenic peptide substrate kinetic assay (selectivity ratio vs cathepsin S); details: ratio of cathepsin B inhibition constant to cathepsin S inhibition constant
Protocol: (§2) Kinetic measurements are performed in a total reaction volume of 30 μl in 384-well microtiter plates. […] Control reactions in the absence of inhibitor are performed in replicates of 24. The reactions are initiated by adding the substrate, acetyl-histidine-proline-valine-lysine-amino carbamoyl coumarin, to a final concentration of 10 μM. The rate of substrate hydrolysis is measured by monitoring the increase in fluorescence at an excitation wavelength of 380 nm and an emission wavelength of 450 nm that results from cleavage of the aniline bond in the substrate by the enzyme. The apparent inhibition constants for the compounds are determined from the enzyme progress curves ([…]. Elrod, et al. Anal Biochem 2000, 286(1), 45-50) and are then used to calculate the inhibition constants for competitive inhibitors. Selectivity for cathepsin S in the presence of cathepsin isozymes was determined by the ratio of the cathepsin isozyme inhibition constant of a compound of the present invention to the cathepsin S inhibition constant of the same compound.

Cathepsin K = molecular target: T1, Cathepsin K (Homo sapiens, UniProt P43235); assay: Cathepsin K inhibition, fluorogenic peptide substrate kinetic assay (selectivity ratio vs cathepsin S); details: ratio of cathepsin K inhibition constant to cathepsin S inhibition constant
T1 sequence (P43235 115-329): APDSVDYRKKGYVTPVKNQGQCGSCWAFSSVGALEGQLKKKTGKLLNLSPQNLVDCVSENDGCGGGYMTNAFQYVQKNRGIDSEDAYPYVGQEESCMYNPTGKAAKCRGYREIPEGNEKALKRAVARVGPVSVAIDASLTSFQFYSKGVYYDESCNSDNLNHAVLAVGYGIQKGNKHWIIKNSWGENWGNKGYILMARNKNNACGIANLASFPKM
Protocol: as §2, with “acetyl-lysine-histidine-proline-lysine-amino” for “acetyl-histidine-proline-valine-lysine-amino”, “40” for “10”

Sequence of Cathepsin S (P25774 115-331, species assumed): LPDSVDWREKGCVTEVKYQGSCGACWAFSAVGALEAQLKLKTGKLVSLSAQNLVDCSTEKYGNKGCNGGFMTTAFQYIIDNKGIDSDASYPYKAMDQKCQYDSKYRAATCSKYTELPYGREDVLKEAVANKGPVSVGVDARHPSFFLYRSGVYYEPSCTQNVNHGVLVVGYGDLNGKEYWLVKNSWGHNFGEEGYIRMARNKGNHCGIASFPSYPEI

| Compound | Ki (Cathepsin S) | Selectivity for Cat. S over Cat. L (Cathepsin L) | Selectivity for Cat. S over Cat. B (Cathepsin B) | Selectivity for Cat. S over Cat. K (Cathepsin K) |
| --- | --- | --- | --- | --- |
| 3-(S)-[2-(S)-(6-Chloro-benzooxazol-2-ylamino)-3-cyclohexyl-propionylamino]-4-(5-fluoro-2,3-dihydro-indol-1-yl)-butyric acid tert-butyl ester [Example 28] | < 1000 nM | ++ (++, >100) | ++ (++, >100) | ++ (++, >100) |
| CC(C)(C)C[C@H](Nc1nc2ccccc2o1)C(=O)N[C@@H](CC(=O)OC(C)(C)C)CN1CCc2cc(F)ccc21 [Example 3, 3-(S)-[2-(S)-(Benzooxazol-2-ylamino)-4,4-dimethyl-pentanoylamino]-4-(5-fluoro-2,3-dihydro-indol-1-yl)-butyric acid tert-butyl ester] | < 1000 nM | ++ (++, >100) | ++ (++, >100) | ++ (++, >100) |
| CC(C)(C)C[C@H](Nc1nc2ccccc2o1)C(=O)N[C@@H](CC(=O)O)CN1CCc2cc(F)ccc21 [Example 4, 3-(S)-[2-(S)-(Benzooxazol-2-ylamino)-4,4-dimethyl-pentanoylamino]-4-(5-fluoro-2,3-dihydro-indol-1-yl)-butyric acid] | < 100 nM | +++ (+++, >1000) | +++ (+++, >1000) | ++ (++, >100) |
| CC(C)(C)C[C@H](Nc1nc2ccccc2o1)C(=O)N[C@@H](CCS(C)(=O)=O)CN1CCc2cc(F)ccc21 [Example 5, 2-(S)-(Benzooxazol-2-ylamino)-4,4-dimethyl-pentanoic acid [1-(S)-(5-fluoro-2,3-dihydro-indol-1-ylmethyl)-3-methanesulfonyl-propyl]-amide] | < 100 nM | +++ (+++, >1000) | +++ (+++, >1000) | + (+, >10) |
| CC(C)(C)C[C@H](Nc1nc2ccccc2o1)C(=O)N[C@@H](COCc1ccccc1)CN1CCc2cc(F)ccc21 [Example 6, 2-(S)-(Benzooxazol-2-ylamino)-4,4-dimethyl-pentanoic acid (R)-[1-benzyloxymethyl-2-(5-fluoro-2,3-dihydro-indol-1-yl)-ethyl]-amide] | < 100 nM | +++ (+++, >1000) | +++ (+++, >1000) | + (+, >10) |
| O=C(N[C@H](CNc1ccc(F)cc1)COCc1ccccc1)[C@H](CC1CCCCC1)Nc1nc2ccccc2o1 [Example 11, 2-(S)-(Benzooxazol-2-ylamino)-N-[1-(R)-benzyloxymethyl-2-(4-fluoro-phenylamino)-ethyl]-3-cyclohexyl-propionamide] | < 100 nM | ++ (++, >100) | ++ (++, >100) | ++ (++, >100) |
| CC(C)(C)C[C@H](Nc1nc2ccccc2o1)C(=O)N[C@H](CN1CCc2cc(F)ccc21)CS(C)(=O)=O [Example 12, (S)-2-(Benzooxazol-2-ylamino)-4,4-dimethyl-pentanoic acid (R)-[2-(5-fluoro-2,3-dihydro-indol-1-yl)-1-methanesulfonylmethyl-ethyl]-amide] | < 100 nM | +++ (+++, >1000) | +++ (+++, >1000) | ++ (++, >100) |

Further lines, results first:

| Ki (Cathepsin S) | Selectivity for Cat. S over Cat. L (Cathepsin L) | Selectivity for Cat. S over Cat. B (Cathepsin B) | Selectivity for Cat. S over Cat. K (Cathepsin K) | Compound |
| --- | --- | --- | --- | --- |
| < 100 nM | +++ (+++, >1000) | +++ (+++, >1000) | + (+, >10) | CC(C)(C)C[C@H](Nc1nc2ccccc2o1)C(=O)N[C@@H](CO)CN1CCc2cc(F)ccc21 [Example 7, 2-(S)-(Benzooxazol-2-ylamino)-4,4-dimethyl-pentanoic acid [2-(5-fluoro-2,3-dihydro-indol-1-yl)-1-(R)-hydroxymethyl-ethyl]-amide] |
| < 100 nM | ++ (++, >100) | +++ (+++, >1000) | ++ (++, >100) | CC(C)(C)OC(=O)C[C@@H](CN1CCc2cc(F)ccc21)NC(=O)[C@H](CC1CCCCC1)Nc1nc2ccccc2o1 [Example 9, 3-(S)-[2-(S)-(Benzooxazol-2-ylamino)-3-cyclohexyl-propionylamino]-4-(5-fluoro-2,3-dihydro-indol-1-yl)-butyric acid tert-butyl ester] |
| < 1000 nM | + (+, >10) | ++ (++, >100) | ++ (++, >100) | O=C(NCCN1CCc2cc(F)ccc21)[C@H](CC1CCCCC1)Nc1nc2ccccc2s1 [Example 16, 2-(S)-(Benzothiazol-2-ylamino)-3-cyclohexyl-N-[2-(5-fluoro-2,3-dihydro-indol-1-yl)-ethyl]-propionamide] |
| < 100 nM | ++ (++, >100) | +++ (+++, >1000) | +++ (+++, >1000) | COc1ccc(NCCNC(=O)[C@H](CC2CCCCC2)Nc2nc3ccccc3s2)cc1 [Example 17, 2-(S)-(Benzothiazol-2-ylamino)-3-cyclohexyl-N-[2-(4-methoxy-phenylamino)-ethyl]-propionamide] |
| < 10000 nM | + (+, >10) | + (+, >10) | + (+, >10) | CC(C)(C)C[C@H](Nc1cnccn1)C(=O)NCCN1CCc2cc(F)ccc21 [Example 18, (S)-4,4-Dimethyl-2-(pyrazin-2-ylamino)-pentanoic acid [2-(5-fluoro-2,3-dihydro-indol-1-yl)-ethyl]-amide] |
| < 100 nM | + (+, >10) | +++ (+++, >1000) | – | CC(C)(C)C[C@H](Nc1nccc2ccccc12)C(=O)NCCN1CCc2cc(F)ccc21 [Example 19, 2-(S)-(Isoquinolin-1-ylamino)-4,4-dimethyl-pentanoic acid [2-(5-fluoro-2,3-dihydro-indol-1-yl)-ethyl]-amide] |
| < 10000 nM | – | + (+, >10) | + (+, >10) | Cc1sc(N[C@@H](CC2CCCCC2)C(=O)NCCN2CCc3cc(F)ccc32)nc1-c1ccccc1 [Example 20, (S)-3-Cyclohexyl-N-[2-(5-fluoro-2,3-dihydro-indol-1-yl)-ethyl]-2-(5-methyl-4-phenyl-thiazol-2-ylamino)-propionamide] |
| < 1000 nM | + (+, >10) | ++ (++, >100) | + (+, >10) | O=C(NCCNc1ccc(F)cc1)[C@H](CC1CCCCC1)Nc1nc2ccc(Cl)cc2s1 [Example 21, 2-(S)-(6-Chloro-benzothiazol-2-ylamino)-3-cyclohexyl-N-[2-(4-fluoro-phenylamino)-ethyl]-propionamide] |
